Patent publication US10189853B2, “Conformationally restricted 4-substituted-2,6-dimethylfuro[2,3-d]pyrimidines as anti-tumor agents” (DUQUESNE UNIVERSITY OF THE HOLY SPIRIT, priority 2014, dated 2019)

Legend:
[1] = tested on: M6/6 cells (SK-OV-3 expressing Pgp); test: Antiproliferative SRB assay; conditions: M6/6 (Pgp) vs SKOV3
U251 = test: NCI 60 cell line panel; assay type: cell-based; conditions: Homo sapiens, U-251, CNS Cancer
MDA-MB-231/ATCC = test: NCI 60 cell line panel; assay type: cell-based; conditions: Homo sapiens, Breast Cancer
NCI-H460 = test: NCI 60 cell line panel; assay type: cell-based; conditions: Homo sapiens, NSCLC
BT-549 = test: NCI 60 cell line panel; assay type: cell-based; conditions: Homo sapiens
SR = test: NCI 60 cell line panel; assay type: cell-based; conditions: Homo sapiens, Leukemia
UACC-62 = test: NCI 60 cell line panel; assay type: cell-based; conditions: Homo sapiens, Melanoma
MDA-MB-468 = test: NCI 60 cell line panel; assay type: cell-based; conditions: Homo sapiens, Breast Cancer
M14 = test: NCI 60 cell line panel; assay type: cell-based; conditions: Homo sapiens, Melanoma
PDGFR-β = PDGFR-β (Homo sapiens (Human), UniProt P09619); test: PDGFR-β kinase inhibition, phosphotyrosine ELISA cytoblot; assay type: cell-based
RXF 393 = test: NCI 60 cell line panel; assay type: cell-based; conditions: Homo sapiens, Renal Cancer
SKOV3 cells = test: Antiproliferative SRB assay; assay type: cell-based; conditions: Homo sapiens, SK-OV-3, 48 h, read-out: IC50 ± SD in SKOV3 cells
[2] = tested on: colchicine site on tubulin; test: Inhibition of [3H]colchicine binding
A549/ATCC = test: NCI 60 cell line panel; assay type: cell-based; conditions: Homo sapiens, NSCLC
A498 = test: NCI 60 cell line panel; assay type: cell-based; conditions: Homo sapiens, Renal Cancer
RPMI-8226 = test: NCI 60 cell line panel; assay type: cell-based; conditions: Homo sapiens, Leukemia
SK-MEL-28 = test: NCI 60 cell line panel; assay type: cell-based; conditions: Homo sapiens, Melanoma
MALME-3M = test: NCI 60 cell line panel; assay type: cell-based; conditions: Homo sapiens, Melanoma
NCI-H322M = test: NCI 60 cell line panel; assay type: cell-based; conditions: Homo sapiens, NSCLC

Chain of PDGFR-β (P09619 33-1106): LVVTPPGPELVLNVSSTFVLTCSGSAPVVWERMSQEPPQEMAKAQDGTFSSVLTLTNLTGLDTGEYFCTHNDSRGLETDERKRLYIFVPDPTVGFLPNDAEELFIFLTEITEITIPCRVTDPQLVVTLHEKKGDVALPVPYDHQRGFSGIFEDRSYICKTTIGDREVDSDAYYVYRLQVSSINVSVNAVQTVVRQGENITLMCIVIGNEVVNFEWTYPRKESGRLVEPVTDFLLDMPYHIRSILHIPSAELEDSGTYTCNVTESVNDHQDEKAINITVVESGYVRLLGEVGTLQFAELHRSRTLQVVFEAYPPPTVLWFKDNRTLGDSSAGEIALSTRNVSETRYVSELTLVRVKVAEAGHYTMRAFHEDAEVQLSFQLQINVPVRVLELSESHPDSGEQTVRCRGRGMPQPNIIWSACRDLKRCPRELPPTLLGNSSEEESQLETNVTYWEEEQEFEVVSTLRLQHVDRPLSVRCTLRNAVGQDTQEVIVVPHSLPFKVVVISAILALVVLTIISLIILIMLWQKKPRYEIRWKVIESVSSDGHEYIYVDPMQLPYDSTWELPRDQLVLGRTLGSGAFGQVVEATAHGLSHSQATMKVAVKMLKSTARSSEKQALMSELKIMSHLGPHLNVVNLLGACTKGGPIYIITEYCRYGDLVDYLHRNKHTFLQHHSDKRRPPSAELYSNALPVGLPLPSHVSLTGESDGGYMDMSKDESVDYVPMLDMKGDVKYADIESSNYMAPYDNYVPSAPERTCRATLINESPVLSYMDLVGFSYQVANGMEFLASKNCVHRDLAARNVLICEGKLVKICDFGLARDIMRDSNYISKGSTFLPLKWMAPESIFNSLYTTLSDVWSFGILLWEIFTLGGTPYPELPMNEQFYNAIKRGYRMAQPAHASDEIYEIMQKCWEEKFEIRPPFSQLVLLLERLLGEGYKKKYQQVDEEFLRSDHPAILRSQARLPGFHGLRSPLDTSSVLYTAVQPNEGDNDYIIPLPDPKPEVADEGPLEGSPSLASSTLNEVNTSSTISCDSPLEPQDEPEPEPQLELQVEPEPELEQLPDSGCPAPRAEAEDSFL

IC50 (SKOV3 cells) [nM]	Structure (SMILES)	GI50 (U251) [nM]	GI50 (MDA-MB-231/ATCC) [nM]	GI50 (NCI-H460) [nM]	GI50 (BT-549) [nM]	GI50 (UACC-62) [nM]	GI50 (MDA-MB-468) [nM]	GI50 (M14) [nM]	GI50 (RXF 393) [nM]	other results
425 ± 53.1	Cc1nc(N(C)c2ccc3occc3c2)c2cc(C)oc2n1 [Compound 7, N-1-benzofuran-5-yl-N,2,6-trimethylfuro[2,3-d]pyrimidin-4-amine]	84	223	138	432	57.1	31.5	47.3	57.2	Rr value (relative resistance) [1]: 1.2; GI50 (SR): 62.4 nM; IC50 (PDGFR-β; SH-SY5Y cells, phosphotyrosine ELISA): 25 ± 4.8 nM; fold better than sunitinib, PDGFR-β (PDGFR-β; vs sunitinib): about 4 fold
12.9 ± 1.2	COc1ccc2c(c1)CCCN2c1nc(C)nc2oc(C)cc12 [Compound 10, 4-(6-methoxy-3,4-dihydroquinolin-1(2H)-yl)-2,6-dimethylfuro[2,3-d]pyrimidine]	< 10	11.4	< 10	< 10	< 10	< 10	< 10	< 10	Inhibition of colchicine binding % inhibition ± SD ([2]; 1 μM): 82 ± 3%; Inhibition of colchicine binding % inhibition ± SD ([2]; 5 μM): 96 ± 1%; GI50 (A549/ATCC): < 10 nM; GI50 (A498): < 10 nM; GI50 (RPMI-8226): < 10 nM; GI50 (SK-MEL-28): < 10 nM; GI50 (MALME-3M): < 10 nM; GI50 (NCI-H322M): < 10 nM
